Experimental data reported in US11311609B2, “Regulating chimeric antigen receptors” (DANA-FARBER CANCER INSTITUTE, INC., priority 2017, dated 2022).

Assays:
[1] = test system: CD19 positive tumor cells (Daudi, Raji); assay: Co-culture depletion of CD19 positive tumor cells by SMART-CAR expressing Jurkat T-cells, flow cytometry with CD19-FITC antibody; format: cell-based
Experimental: FIG. 28 is a schematic depicting the experimental setup used in FIG. 18 to evaluate the ability of SMART-CAR expressing Jurkat cells to deplete CD19-positive tumor cells. SMART-CAR expressing Jurkat cells are incubated with CD19-positive target tumor cells at the indicated ratio for a given amount of time (Example 25). CD19-positive target tumor cell depletion can be monitored by measuring levels of CD19.
FIG. 30 is a schematic depicting the experimental setup used in FIG. 21 and described in Example 26 to illustrate the chemical control of SMART-CAR expression and subsequent activity against CD19 positive tumor cells using dFKBP7. SMART-CAR expressing Jurkat cells were pretreated with dFKBP7 at 250 nM for 4 hours to allow for maximal degradation of SMART-CAR. The Jurkat cells were then harvested and washed three times to remove dFKBP7. Jurkat cells were split into two experimental arms. The first arm (top, blue) was treated with DMSO control and the second arm (bottom, green) was retreated with 250 nM dFKBP7. The two experimental arms were then mixed at a 1:1 ratio with CD19 positive tumor cells and CD19-positive tumor cells monitored by flow cytometry.
FIG. 33 is a line plot tracking CD19 positive tumor cells during alternating exposure and removal of 250 nM of dFKBP7 in a 30 hour time course. […]
FIG. 28 illustrates the experimental design to evaluate the functionality of SMART-CAR expressing Jurkat T-cells to deplete CD19 positive target tumor cells. […] Co-cultured cells were pelleted, stained with a CD19-FITC antibody, fixed, and CD19 levels measured via flow cytometry.
SMART-CAR expressing Jurkat cells were pretreated with dFKBP7 at 250 nM for 4 hours to allow for maximal degradation of SMART-CAR. […] The two experimental arms were then mixed at a 1:1 ratio with CD19 positive tumor cells and CD19-positive tumor cells monitored by flow cytometry. […]
FIG. 32 is a graph that exemplifies the linear relationship between number of SMART-CAR expressing T-cells and functional killing of CD19 positive target tumor cells. […] CD19 positive tumor cells were then quantified using flow cytometry with a directly conjugated CD19-FITC antibody. […]

[2] = test system: KRAS signaling (pMEK and pAKT); assay: Immunoblot of downstream surrogates of KRAS signaling in NIH3T3 cells expressing FKBP*-KRASG12V; format: cell-based; conditions: NIH3T3 cells, N-terminal dTAG-KRAS; 500 nM, indicated time
Experimental: FIG. 19 is an immunoblot of NIH3T3 cells expressing KRASG12V allele fused to FKBP* in the N-terminus or C-terminus. Cells were treated with 500 nM dFKBP7 for the indicated time. Cells were harvested and immunoblotted to measure degradation of FKBP*-KRASG12V and downstream surrogates of KRAS signaling (e.g. pMEK and pAKT).
(§1) FIG. 20 is an immunoblot of NIH3T3 cells expressing FKBP* fused to the N-terminus of KRASG12V treated with 1 uM of the indicated dFKBP heterobifunctional compounds for 24 hours. Cells were harvested and immunoblotted to measure degradation of FKBP*-KRASG12V and downstream surrogates of KRAS signaling (e.g. pMEK and pAKT).
as §1, with “21” for “20”, “with” for “with 1 uM of”, “concentrations of dFKBP13” for “dFKBP heterobifunctional compounds”
FIG. 22 is an immunoblot of NIH3T3 cells expressing FKBP* fused to the N-terminus of KRASG12V treated with 1 uM dFKBP13 for the indicated time. Cells were harvested and immunoblotted to measure degradation of FKBP*-KRASG12V and downstream surrogates of KRAS signaling (e.g. pMEK and pAKT).
Cells were treated with 500 nM dFKBP7 for the indicated time. […]

CC[C@H](C(=O)N1CCCC[C@H]1C(=O)O[C@H](CCc1ccc(OC)c(OC)c1)c1cccc(OCC(=O)NCCCOCCOCCOCCCNC(=O)COc2cccc3c2C(=O)N(C2CCC(=O)NC2=O)C3=O)c1)c1cc(OC)c(OC)c(OC)c1 (some centres unmarked) [dFKBP7]
CD19 positive target tumor cell depletion in the presence of dFKBP7 ([1]; 1:3 ratio, 250 nM, 4 HR to 24 HR): halted
CD19 positive target tumor cell depletion after removal of dFKBP7 ([1]; 1:3 ratio, 24 HR-30 HR): rapid target tumor cell depletion
Daudi cell depletion, dose response ([1]; CD19 positive Daudi cells, 1:3 ratio, 24 hours, indicated concentrations): Daudi cell depletion was rescued
CD19 positive tumor cells ([1]; Daudi and Raji, 1:1 ratio, retreatment with 250 nM dFKBP7): not affected
p-AKT signal [2]: downstream decrease in p-AKT signal
